Several values for one entry are separate records, joined by “and”; a condition that tells them apart may be missing. Equal values may be shown once.
How the values were obtained:
[1] = test system: 60 human cancer cell lines
Excerpt: The defined tumor inhibition criterion (GI50, TGI, or LC50) is recalculated in log10 expression, and the colored bars, which indicate then the sensitivity of the individual tumor cell line to the agent, are given in log10 units. […] The most important feature is at the bottom of the page: the MID (Mean of Inhibition Data) indicates the mean concentration for all tested cell lines required for the drug to reach the defined tumor inhibition criterion (GI50, TGI, or LC50). It is given in Log10GI50, Log10TGI, and Log10LC50. From those values, the corresponding MID is calculated. […] The MID can be transformed from logarithmic into linear concentrations by the formula: c = 10^MID.
The human tumor cell lines of the cancer screening panel are grown in RPMI-1640 medium containing 5% fetal bovine serum (FBS) and 2 mM L-glutamine. For a typical screening experiment, cells are inoculated into 96-well microtiter plates in 100 μL at plating densities ranging from 5000 to 40,000 cells/well, depending on the doubling time of individual cell lines. After cell inoculation, the microtiter plates are incubated at 37 °C, 5% CO2, 95% air, and 100% relative humidity for 24 h prior to the addition of experimental drugs. After 24 h, two plates of each cell line are fixed in situ with trichloroacetic acid (TCA) to represent a measurement of the cell population for each cell line at the time of drug addition (Tz). Experimental drugs are solubilized in dimethyl sulfoxide (DMSO) at 400-fold the desired final maximum test concentration and stored frozen prior to use. At the time of drug addition, an aliquot of frozen concentrate is thawed and diluted to twice the desired final maximum test concentration with a complete medium containing 50 μg/mL gentamicin. Additional four, 10-fold or ½ log serial dilutions are made to provide a total of five drug concentrations plus control. Aliquots of 100 μL of these different drug dilutions are added to the appropriate microtiter wells already containing 100 μL of the medium, resulting in the required final drug concentrations.
Following drug addition, the plates are incubated for an additional 48 h at 37 °C, 5% CO2, 95% air, and 100% relative humidity. For adherent cells, the assay is terminated by the addition of cold TCA. Cells are fixed in situ by the gentle addition of 50 μL of cold 50% (m/v) TCA (final concentration, 10% TCA) and incubated for 60 min at 4 °C. The supernatant is discarded, and the plates are washed five times with tap water and air dried. Sulforhodamine B (SRB) solution [100 μL at 0.4% (m/v) in 1% acetic acid] is added to each well, and plates are incubated for 10 min at room temperature. After staining, unbound dye is removed by washing five times with 1% acetic acid, and the plates are air dried. Bound stain is subsequently solubilized with 10 mM trizma® base [2-amino-2-(hydroxymethyl)-1,3-propandiol, tris base, trometamol], and the absorbance is read on an automated plate reader at a wavelength of λ = 515 nm. For suspension cells, the methodology is the same, except that the assay is terminated by fixing settled cells at the bottom of the wells by gently adding 50 μL of 80% TCA (final concentration, 16% TCA). Using the seven absorbance measurements [time zero, (Tz), control growth, (C), and test growth in the presence of the drug at the five concentration levels (Ti)], the percentage growth is calculated at each of the drug concentration levels. Percentage growth inhibition is calculated as:[(Ti − Tz)/(C − Tz)] × 100 for concentrations for which Ti ≥ Tz [(Ti − Tz)/Tz] × 100 for concentrations for which Ti < Tz
Three dose-response parameters are calculated for each experimental agent.

MCF7 = settings: MCF7, breast cancer, wild-type p53; 48 h
PC-3 = settings: PC-3, prostate cancer, mutant p53 (null p53 protein); 48 h
HCT-116 = settings: HCT-116, colon cancer, wild-type p53; 48 h
HT29 = settings: HT29, colon cancer, mutant p53; 48 h
NCI-H460 = settings: NCI-H460, non-small-cell lung cancer, wild-type p53; 48 h
SNB-75 = settings: SNB-75, CNS cancer (brain tumor), mutant p53; 48 h
MALME-3M = settings: MALME-3M, melanoma, wild-type p53; 48 h
DU-145 = settings: DU-145, prostate cancer, mutant p53; 48 h
UACC-62 = settings: UACC-62, melanoma, wild-type p53; 48 h
A498 = settings: A498, renal cancer, wild-type p53; 48 h
NCI/ADR-RES = settings: ovarian cancer, mutant p53, 48 h
SW-620 = settings: SW-620, colon cancer, mutant p53; 48 h
SF-295 = settings: SF-295, CNS cancer (brain tumor), mutant p53; 48 h
SNB-19 = settings: SNB-19, CNS cancer (brain tumor), mutant p53; 48 h
MOLT-4 = settings: MOLT-4, leukemia, mutant p53; 48 h
OVCAR-4 = settings: OVCAR-4, ovarian cancer, mutant p53; 48 h
TK-10 = settings: TK-10, renal cancer, mutant p53; 48 h
DU-145 cells = experiment: Cytochrome c assay (mitochondrial and cytosolic), ELISA; assay type: cell-based, human; settings: 25 µM
Experimental: (§1) Cell numbers of 2 × 10^6 PC-3 and DU-145 cells were seeded into a […]. […] The protein content for each fraction was calculated to determine the mass content of cytochrome c in each fraction (pg cytochrome c/mg total protein). The mass content of cytochrome c (pg cytochrome c/mg total protein) was normalized towards the corresponding blank DMSO control and is given in percent (%) of blank DMSO control.

PC-3 cells = experiment: as above; assay type: cell-based, human
Experimental: as §1

MDA-MB-435 = settings: MDA-MB-435, melanoma, mutant p53; 48 h
MDA-MB-231 = settings: MDA-MB-231, breast cancer, mutant p53; 48 h
SF-268 = settings: SF-268, CNS cancer (brain tumor), mutant p53; 48 h
CCRF-CEM = settings: leukemia, mutant p53, 48 h
NCI-H226 = settings: NCI-H226, non-small-cell lung cancer, p53 Lit. inconclusive; 48 h
SF-539 = settings: SF-539, CNS cancer (brain tumor), mutant p53; 48 h

Structure (SMILES): COc1cc2c(c(OC)c1OC)-c1ccc(NNC(=S)N(Cc3cccc(C[N+](Cc4cccc(CNC56CC7CC(CC(C7)C5)C6)c4)(Cc4cccc(CNC56CC7CC(CC(C7)C5)C6)c4)Cc4cccc(CN(C(=S)NNc5ccc6c(cc5=O)C(NC(C)=O)CCc5cc(OC)c(OC)c(OC)c5-6)C56CC7CC(CC(C7)C5)C6)c4)c3)C34CC5CC(CC(C5)C3)C4)c(=O)cc1C(NC(C)=O)CC2 [Compound 3, [(bis{3-[(tricyclo[3.3.1.1^3,7]decan-1-ylamino)methyl]benzyl}ammonio)bis(methanediylbenzene-3,1-diylmethanediyl)]di-2-[(aS,7S)-7-(acetylamino)-1,2,3-trimethoxy-9-oxo-5,6,7,9-tetrahydrobenzo[a]heptalen-10-yl]-N-(tricyclo[3.3.1.1^3,7]decan-1-yl)hydrazinecarbothioamide chloride pentahydrate]
- induction of cancer cell death (classification) ([1]; NCI 60 panel overall): tumoricidal
- Mean of Inhibition Data (MID) TGI, 10^MID ([1]; mean over all tested cell lines of the NCI 60 panel): 4.571 µM and 4.57 µM
- TGI (MCF7): 3.44 µM
- TGI (PC-3): 5.64 µM
- TGI (HCT-116): 3.07 µM
- TGI (HT29): 2.81 µM
- TGI (NCI-H460): 3.79 µM
- TGI (SNB-75): 6.68 µM
- TGI (MALME-3M): 3.04 µM
- TGI (DU-145): 7.10 µM
- TGI (UACC-62): 6.38 µM
- TGI (A498): 3.28 µM
- TGI (NCI/ADR-RES): 12.5 µM
- TGI (SW-620): 2.06 µM
- TGI (SF-295): 5.92 µM
- TGI (SNB-19): 6.20 µM
- TGI (MOLT-4): 1.93 µM
- TGI (OVCAR-4): 8.94 µM
- TGI (TK-10): 8.35 µM
- toxicity for the cell line (DU-145 cells; 50 µM and 75 µM, 48 h post-treatment): highly toxic
- concentration at which cytochrome c translocation from mitochondria into the cytosol was readily induced (DU-145 cells; 48 h, tested 500 nM, 1 µM, 5 µM): 25.0 µM
- toxicity for the cell line (PC-3 cells; 25 µM, 50 µM and 75 µM, 48 h post-treatment): highly toxic
- cell death with depletion of cytosolic cytochrome c (PC-3 cells; 25.0 µM, 48 h): induced complete cell death
- concentration at which cytochrome c translocation from mitochondria into the cytosol was readily induced (PC-3 cells; 48 h, tested 500 nM, 1 µM, 5 µM, 25 µM): 5.0 µM
- TGI (MDA-MB-435): 3.50 µM
- TGI (MDA-MB-231): 2.99 µM
- TGI (SF-268): 6.54 µM
- TGI (CCRF-CEM): 2.47 µM
- TGI (NCI-H226): 9.97 µM
- TGI (SF-539): 4.30 µM
